One experiment addresses EGFR L858R/T790M (Homo sapiens (Human), UniProt P00533, L858R/T790M). Nature of the experiment: TR-FRET assay for ERBB kinases. It counts as biochemical. The following applies: geometric mean if measured more than once. As to the method:
(§1) TR-FRET Assay for ERBB Kinases
(§2) All compounds and PROTACs were serially diluted in three-fold increments using 100% DMSO, followed by an intermediate 10-fold dilution using Buffer A (50 mM HEPES, pH 7.5, 50 mM NaCl, 10 mM MgCl2, 1 mM DTT, and 0.1% Pluronic F-68). […] Next, 10 uL of protein kinase in Buffer A was added to each well of the assay plate and pre-incubated with compound for 10 minutes. Kinase reactions were then initiated by addition of 5 uL substrate mix containing 3 mM ATP and 30 uM fluorescein-labeled Poly-GluTyr (Thermo Fisher, #PV3610) in Buffer A and allowed to proceed for 10 minutes at room temperature. Reactions were quenched by addition of a 5 uL mixture containing 5 nM LanthaScreen® Tb-pY20 Antibody (Thermo Fisher, #PV3552) and 40 mM EDTA in Buffer A. Assay plates were then read using a Synergy2 (Biotek Instruments, Winooski, Vt.) via excitation thru a 340/20 nm bandpass filter and emission collected thru 490/10 nm (donor) and 520/25 nm (acceptor) bandpass filters.
A general note: Time-resolved FRET reads energy transfer from a long-lived donor to a nearby acceptor.

A further experiment concerns the target EGFR WT (Homo sapiens (Human), UniProt P00533). The experiment can be described thus: TR-FRET assay for ERBB kinases. It counts as biochemical. The following applies: geometric mean if measured more than once. As to the method:
as §1, §2

The target in the next experiment is EGFR L858R/T790M/C797S (Homo sapiens (Human), UniProt P00533, C797S/L858R/T790M). The experiment can be described thus: TR-FRET assay for ERBB kinases. The experiment is classed as biochemical. The conditions noted are these: geometric mean if measured more than once. As to the method: as §1, §2
EGFR L858R/T790M/C797S, sequence (P00533 25-1210 T790M/C797S/L858R): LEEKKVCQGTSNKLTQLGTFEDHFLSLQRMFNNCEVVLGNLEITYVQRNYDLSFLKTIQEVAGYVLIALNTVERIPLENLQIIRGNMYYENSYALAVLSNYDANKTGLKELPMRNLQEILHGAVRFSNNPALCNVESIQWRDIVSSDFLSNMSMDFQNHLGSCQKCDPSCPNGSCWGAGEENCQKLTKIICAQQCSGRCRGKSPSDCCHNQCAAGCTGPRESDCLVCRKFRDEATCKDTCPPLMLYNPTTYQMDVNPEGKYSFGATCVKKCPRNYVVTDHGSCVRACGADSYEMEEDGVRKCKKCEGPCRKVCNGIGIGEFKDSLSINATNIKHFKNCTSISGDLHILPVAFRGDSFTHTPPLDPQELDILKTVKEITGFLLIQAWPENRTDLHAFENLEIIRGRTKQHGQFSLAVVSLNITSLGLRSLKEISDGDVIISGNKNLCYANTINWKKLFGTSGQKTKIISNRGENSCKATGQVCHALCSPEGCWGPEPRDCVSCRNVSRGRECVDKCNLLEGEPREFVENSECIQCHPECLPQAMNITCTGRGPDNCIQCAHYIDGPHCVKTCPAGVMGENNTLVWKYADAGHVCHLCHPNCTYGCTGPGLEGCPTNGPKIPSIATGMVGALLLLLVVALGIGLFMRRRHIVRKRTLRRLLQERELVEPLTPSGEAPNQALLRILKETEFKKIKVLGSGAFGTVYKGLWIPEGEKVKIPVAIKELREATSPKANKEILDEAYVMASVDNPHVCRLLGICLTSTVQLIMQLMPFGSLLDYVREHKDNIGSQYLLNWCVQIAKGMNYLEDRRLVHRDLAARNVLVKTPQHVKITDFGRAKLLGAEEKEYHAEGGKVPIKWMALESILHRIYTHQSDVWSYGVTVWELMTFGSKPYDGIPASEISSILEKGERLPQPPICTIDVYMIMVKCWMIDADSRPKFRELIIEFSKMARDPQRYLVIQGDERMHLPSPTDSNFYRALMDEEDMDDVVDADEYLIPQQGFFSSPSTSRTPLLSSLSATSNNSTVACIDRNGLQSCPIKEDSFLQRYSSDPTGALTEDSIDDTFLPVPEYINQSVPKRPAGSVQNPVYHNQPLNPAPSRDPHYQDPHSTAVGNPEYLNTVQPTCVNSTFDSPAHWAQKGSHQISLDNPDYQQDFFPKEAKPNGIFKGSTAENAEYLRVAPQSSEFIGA
The target of experiment [1] is EGFR L858R/T790M double mutant (H1975) (Homo sapiens (Human), UniProt P00533, L858R/T790M). Nature of the experiment: EGFR protein degradation assay (Western blot). It counts as cell-based. The following applies: 72 hours, 300 nM to 10 nM. The method, then:
EGFR Protein Degradation assay
Cells expressing the appropriate form of EGFR were seeded in 6-well plates (300,000 cells per well) and allowed to adhere to the plate overnight. […] To harvest cells, media was removed and cells were washed once with ice-cold phosphate-buffered saline (PBS) prior to the addition of 400 μl lysis buffer (Cell Signaling Technology) supplemented with a protease inhibitor cocktail (Thermo Scientific). Cells were scraped from the plate and the cell lysate transferred to an Eppendorf tube and then clarified by a single spin at 10 000 rpm for 10 minutes. The protein concentration of each lysate was determined (BCA kit, Thermo Scientific) prior to the addition of loading buffer (Invitrogen) and reducing agent (Invitrogen). 10 μg protein of each lysate was loaded on an SDS/PAGE gel and run at 165V for 2 hours. Following transfer to a PVDF membrane (iBlot2, Thermo Fisher Scientific), the membrane was blocked in Tris-buffered saline containing 0.1% Tween-20 (TBS-T) and supplemented with 5% powdered milk for 1 hour. Membranes were then probed with EGFR and tubulin (loaded control) primary antibodies in TBS-T containing 3% bovine serum albumin (BSA) overnight at 4° C. Membranes were washed thrice with TBS-T before incubation with secondary antibody in TBS-T containing 3% bovine serum albumin (BSA) and incubated for 1 hour at room temperature. Following 3 further washes with TBS, membrane proteins of interest were detected by enzyme-linked chemiluminescence (ECL) using a Chemidoc (Bio-Rad).
In general terms: In western blotting, separated proteins are transferred to a membrane and probed.

The target in the next experiment is EGFR Exon20NPG (Homo sapiens (Human), UniProt P00533, INS770NPG). The experiment can be described thus: TR-FRET assay for ERBB kinases. It counts as biochemical. The following applies: geometric mean if measured more than once. The method, then: as §1
All compounds and PROTACs were serially diluted in three-fold increments using 100% DMSO, followed by an intermediate 10-fold dilution using Buffer A (50 mM HEPES, pH 7.5, 50 mM NaCl, 10 mM MgCl2, 1 mM DTT, and 0.1% Pluronic F-68). Two microliters of serially diluted compound or PROTAC were then transferred to black 384-well Proxiplates (PerkinElmer, #6008260) using an Integra Viaflo96. Next, 10 uL of protein kinase in Buffer A was added to each well of the assay plate and pre-incubated with compound for 10 minutes. Kinase reactions were then initiated by addition of 5 uL substrate mix containing 3 mM ATP and 30 uM fluorescein-labeled Poly-GluTyr (Thermo Fisher, #PV3610) in Buffer A and allowed to proceed for 10 minutes at room temperature. Reactions were quenched by addition of a 5 uL mixture containing 5 nM LanthaScreen® Tb-pY20 Antibody (Thermo Fisher, #PV3552) and 40 mM EDTA in Buffer A. Assay plates were then read using a Synergy2 (Biotek Instruments, Winooski, Vt.) via excitation thru a 340/20 nm bandpass filter and emission collected thru 490/10 nm (donor) and 520/25 nm (acceptor) bandpass filters.

In general, IC50 refers to the midpoint of a concentration-inhibition curve.

EGFR L858R/T790M double mutant (H1975), sequence (P00533 25-1210 T790M/L858R): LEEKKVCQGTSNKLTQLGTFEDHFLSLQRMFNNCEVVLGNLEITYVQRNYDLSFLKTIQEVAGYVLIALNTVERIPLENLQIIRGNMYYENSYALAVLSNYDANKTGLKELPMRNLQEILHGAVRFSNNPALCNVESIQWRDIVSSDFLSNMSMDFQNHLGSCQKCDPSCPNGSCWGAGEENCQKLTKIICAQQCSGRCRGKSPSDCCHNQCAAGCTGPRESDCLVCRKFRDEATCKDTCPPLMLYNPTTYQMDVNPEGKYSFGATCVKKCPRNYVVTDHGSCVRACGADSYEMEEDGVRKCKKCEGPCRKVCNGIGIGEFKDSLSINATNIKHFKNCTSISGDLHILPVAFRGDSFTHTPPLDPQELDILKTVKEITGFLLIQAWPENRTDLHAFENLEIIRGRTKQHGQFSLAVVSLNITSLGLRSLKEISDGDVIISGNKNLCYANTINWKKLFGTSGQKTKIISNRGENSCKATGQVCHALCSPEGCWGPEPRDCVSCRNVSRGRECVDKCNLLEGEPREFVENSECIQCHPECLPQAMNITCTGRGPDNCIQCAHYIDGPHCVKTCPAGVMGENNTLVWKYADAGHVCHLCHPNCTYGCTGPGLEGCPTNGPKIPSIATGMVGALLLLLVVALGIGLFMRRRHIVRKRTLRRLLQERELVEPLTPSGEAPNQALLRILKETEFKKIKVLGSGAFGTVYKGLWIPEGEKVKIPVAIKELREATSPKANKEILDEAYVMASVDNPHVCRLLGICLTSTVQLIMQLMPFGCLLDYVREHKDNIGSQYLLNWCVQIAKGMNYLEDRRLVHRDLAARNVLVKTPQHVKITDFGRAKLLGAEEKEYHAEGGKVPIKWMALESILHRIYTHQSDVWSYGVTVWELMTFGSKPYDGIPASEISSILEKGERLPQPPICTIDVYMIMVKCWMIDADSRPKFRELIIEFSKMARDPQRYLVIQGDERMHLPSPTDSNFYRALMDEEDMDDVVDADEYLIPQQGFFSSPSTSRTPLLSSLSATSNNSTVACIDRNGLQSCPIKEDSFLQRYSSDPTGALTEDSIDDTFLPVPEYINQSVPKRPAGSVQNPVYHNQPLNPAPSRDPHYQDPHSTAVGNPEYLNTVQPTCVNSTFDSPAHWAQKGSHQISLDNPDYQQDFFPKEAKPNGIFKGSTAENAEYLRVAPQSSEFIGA
EGFR L858R/T790M, sequence (P00533 25-1210 T790M/L858R): as above
EGFR WT, sequence (P00533 25-1210): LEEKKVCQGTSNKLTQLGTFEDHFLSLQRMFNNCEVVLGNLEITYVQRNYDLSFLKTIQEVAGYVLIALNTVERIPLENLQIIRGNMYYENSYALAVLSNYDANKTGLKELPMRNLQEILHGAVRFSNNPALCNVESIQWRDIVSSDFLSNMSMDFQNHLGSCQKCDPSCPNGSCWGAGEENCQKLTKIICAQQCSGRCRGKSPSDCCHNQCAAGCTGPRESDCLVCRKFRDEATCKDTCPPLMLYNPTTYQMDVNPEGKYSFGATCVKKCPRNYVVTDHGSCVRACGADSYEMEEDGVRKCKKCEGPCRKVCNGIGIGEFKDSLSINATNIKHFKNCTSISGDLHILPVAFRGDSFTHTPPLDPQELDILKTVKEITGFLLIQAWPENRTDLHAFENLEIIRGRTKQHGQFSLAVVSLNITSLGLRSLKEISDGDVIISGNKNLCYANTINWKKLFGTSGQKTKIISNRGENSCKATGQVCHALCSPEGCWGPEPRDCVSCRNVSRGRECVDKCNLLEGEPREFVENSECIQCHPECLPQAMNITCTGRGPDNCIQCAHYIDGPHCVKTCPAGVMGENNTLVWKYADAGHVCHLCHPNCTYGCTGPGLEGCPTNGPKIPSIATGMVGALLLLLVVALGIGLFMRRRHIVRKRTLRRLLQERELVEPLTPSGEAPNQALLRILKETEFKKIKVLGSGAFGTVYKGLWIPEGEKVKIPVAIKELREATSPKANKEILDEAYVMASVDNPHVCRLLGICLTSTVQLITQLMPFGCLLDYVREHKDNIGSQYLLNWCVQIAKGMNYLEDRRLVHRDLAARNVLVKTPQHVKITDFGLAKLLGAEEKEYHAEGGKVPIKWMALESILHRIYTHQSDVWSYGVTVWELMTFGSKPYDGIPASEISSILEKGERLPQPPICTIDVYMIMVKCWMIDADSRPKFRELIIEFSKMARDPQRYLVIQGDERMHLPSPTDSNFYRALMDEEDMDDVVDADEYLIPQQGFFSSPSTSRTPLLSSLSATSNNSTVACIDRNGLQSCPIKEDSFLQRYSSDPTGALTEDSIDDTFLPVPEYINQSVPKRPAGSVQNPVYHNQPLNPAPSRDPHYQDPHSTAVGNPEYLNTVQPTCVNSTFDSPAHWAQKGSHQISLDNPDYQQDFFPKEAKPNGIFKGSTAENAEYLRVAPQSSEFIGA

As for `Cc1ncsc1-c1ccc([C@H](C)NC(=O)[C@H]2C[C@H](O)CN2C(=O)[C@@H](NC(=O)COCCN2CCN(CCCC#Cc3cccc4c3C(=O)N(C(C(=O)Nc3nccs3)c3cc(F)ccc3O)C4)CC2)C(C)(C)C)cc1` (some centres unmarked) [compound 91], the IC50 at EGFR L858R/T790M was determined as 4.7 µM; on EGFR WT, 4.3 µM; on EGFR L858R/T790M/C797S it was 0.66 µM; on EGFR Exon20NPG it was 8.3 µM. In experiment [1], the “EGFR protein remaining, EGFR L858R/T790M double mutant” value (“EGFR protein remaining” for short) is given as “C (>80% EGFR protein remaining after 72 hours of incubation with the test compound at a concentration of 300 nM)”.

Take `COC1CCN(c2nccc(Nc3cc4c(cn3)nc(-c3ccc(CN5CCN(CCOc6ccc7c(c6)C(=O)N(C6CCC(=O)NC6=O)C7=O)CC5)cc3)n4C(C)C)n2)CC1` (centres unmarked) [Example 286, 2-(2,6-dioxopiperidin-3-yl)-5-(2-(4-(4-(1-isopropyl-6-((2-(4-methoxypiperidin-1-yl)pyrimidin-4-yl)amino)-1H-imidazo[4,5-c]pyridin-2-yl)benzyl)piperazin-1-yl)ethoxy)isoindoline-1,3-dione]: the IC50 at EGFR L858R/T790M was 0.48 µM; at EGFR WT it was 7.3 µM; on EGFR L858R/T790M/C797S, 0.17 µM.

In the case of `Cc1ncsc1-c1ccc([C@H](C)NC(=O)[C@H]2C[C@H](O)CN2C(=O)[C@@H](NC(=O)COCCOCCOCCOCCOc2ccc(-c3nccc(Nc4cc5c(cn4)nc(C)n5C(C)C)n3)cc2)C(C)(C)C)cc1` [compound 279], the IC50 on EGFR L858R/T790M was 29 µM; at EGFR WT it was 16 µM; at EGFR L858R/T790M/C797S it was more than 30 µM; at EGFR Exon20NPG it was more than 30 µM.

For `O=C1CCC(N2C(=O)c3ccc(N4CCN(CC5CCN(CC#Cc6cccc7c6C(=O)N(C(C(=O)Nc6nccs6)c6cc(F)ccc6O)C7)CC5)CC4)cc3C2=O)C(=O)N1` (centres unmarked) [compound 293], the IC50 at EGFR L858R/T790M is 4.2 µM; at EGFR WT, 1.7 µM; at EGFR L858R/T790M/C797S, 0.64 µM.

For the compound `O=C1CCC(N2C(=O)c3cccc(NCCOCCOCC#Cc4cccc5c4C(=O)N([C@@H](C(=O)Nc4nccs4)c4cc(F)ccc4O)C5)c3C2=O)C(=O)N1` (some centres unmarked) [compound 264], the IC50 was more than 30 µM at EGFR L858R/T790M, 4.2 µM on EGFR WT, 1.1 µM at EGFR L858R/T790M/C797S and 24 µM at EGFR Exon20NPG. Moreover, the “EGFR protein remaining” value in experiment [1] is “C (>80% EGFR protein remaining after 72 hours of incubation with the test compound at a concentration of 300 nM)”.

Turning to `COC1CCN(c2nccc(Nc3cc4c(cn3)nc(COCCN3CCN(CCOCC(=O)N[C@H](C(=O)N5C[C@H](O)C[C@H]5C(=O)N[C@@H](C)c5ccc(-c6scnc6C)cc5)C(C)(C)C)CC3)n4C(C)C)n2)CC1` [compound 86], the IC50 on EGFR L858R/T790M is 12 µM; on EGFR WT, more than 30 µM; at EGFR L858R/T790M/C797S it was 2.4 µM; on EGFR Exon20NPG it was 24 µM. Further, the “EGFR protein remaining” value in experiment [1] was “C (>80% EGFR protein remaining after 72 hours of incubation with the test compound at a concentration of 300 nM)”.

On to `O=C1CCC(N2C(=O)c3ccc(N4CCN(CCCC#Cc5cccc6c5C(=O)N(C(C(=O)Nc5nccs5)c5cc(F)ccc5O)C6)CC4)cc3C2=O)C(=O)N1` (centres unmarked) [compound 96], for which the IC50 on EGFR L858R/T790M was determined as 10 µM; on EGFR WT, 1.9 µM; at EGFR L858R/T790M/C797S it was 4.6 µM; at EGFR Exon20NPG, 2.5 µM. For the same compound, in experiment [1], the “EGFR protein remaining” value is “C (>80% EGFR protein remaining after 72 hours of incubation with the test compound at a concentration of 300 nM)”.

For the compound `Cc1ncsc1-c1ccc(CNC(=O)[C@@H]2C[C@@H](O)CN2C(=O)C(C(C)C)N2Cc3ccccc3C2=O)c(OCCCCOc2ccc(-c3nccc(Nc4cc5c(cn4)nc(C)n5C(C)C)n3)cc2)c1` (some centres unmarked) [compound 277], the IC50 on EGFR L858R/T790M, on EGFR WT, at EGFR L858R/T790M/C797S and at EGFR Exon20NPG was more than 30 µM in each case. The “EGFR protein remaining” value in experiment [1] is “C (>80% EGFR protein remaining after 72 hours of incubation with the test compound at a concentration of 300 nM)”.

Regarding `Cc1ncsc1-c1ccc([C@H](C)NC(=O)[C@H]2C[C@H](O)CN2C(=O)[C@@H](NC(=O)COCCCOCCCN2CCOC3(CCN(c4nccc(Nc5cc6c(cn5)nc(C)n6C(C)C)n4)CC3)C2)C(C)(C)C)cc1` [compound 285], the IC50 on EGFR L858R/T790M was found to be 35 µM; on EGFR WT, 26 µM; on EGFR L858R/T790M/C797S, 17 µM.

With `Cc1ncsc1-c1ccc(CNC(=O)[C@@H]2C[C@@H](O)CN2C(=O)C(C(C)C)N2Cc3ccccc3C2=O)c(OCCOCCOCCOCCOc2ccc(-c3nccc(Nc4cc5c(cn4)nc(C)n5C(C)C)n3)cc2)c1` (some centres unmarked) [compound 281], the IC50 on EGFR L858R/T790M was more than 30 µM; at EGFR WT it was 12 µM; on EGFR L858R/T790M/C797S, 15 µM; on EGFR Exon20NPG, more than 30 µM.

For the compound `COC1CCN(c2nccc(Nc3cc4c(cn3)nc(COCCN3CCN(c5ccc6c(c5)C(=O)N(C5CCC(=O)NC5=O)C6=O)CC3)n4C(C)(C)C)n2)CC1` (centres unmarked) [compound 287], the IC50 at EGFR L858R/T790M stood at 0.074 µM; on EGFR WT, 6.7 µM; at EGFR L858R/T790M/C797S it was 0.016 µM.

`COC1(CCN2CCN(CCCOCCCOCC(=O)N[C@H](C(=O)N3C[C@H](O)C[C@H]3C(=O)N[C@@H](C)c3ccc(-c4scnc4C)cc3)C(C)(C)C)CC2)CCN(c2nccc(Nc3cc4c(cn3)nc(C)n4C(C)C)n2)CC1` [Example 292, (2S,4R)-4-hydroxy-1-((S)-2-(2-(3-(3-(4-(2-(1-(4-((1-isopropyl-2-methyl-1H-imidazo[4,5-c]pyridin-6-yl)amino)pyrimidin-2-yl)-4-methoxypiperidin-4-yl)ethyl)piperazin-1-yl)propoxy)propoxy)acetamido)-3,3-dimethylbutanoyl)-N—((S)-1-(4-(4-methylthiazol-5-yl)phenyl)ethyl)pyrrolidine-2-carboxamide]: the figures for the IC50 at EGFR L858R/T790M, at EGFR WT and at EGFR L858R/T790M/C797S were 19 µM, 39 µM and 11 µM, respectively.

Regarding `Cc1ncsc1-c1ccc([C@H](C)NC(=O)[C@@H]2C[C@@H](O)CN2C(=O)[C@@H](NC(=O)COCCCOCCCN2CCC3(CC2)CCN(c2nccc(Nc4cc5c(cn4)nc(C)n5C(C)C)n2)CC3)C(C)(C)C)cc1` [Example 282, (2S,4R)-4-hydroxy-1-((S)-2-(2-(3-(3-(9-(4-((1-isopropyl-2-methyl-1H-imidazo[4,5-c]pyridin-6-yl)amino)pyrimidin-2-yl)-3,9-diazaspiro[5.5]undecan-3-yl)propoxy)propoxy)acetamido)-3,3-dimethylbutanoyl)-N—((S)-1-(4-(4-methylthiazol-5-yl)phenyl)ethyl)pyrrolidine-2-carboxamide], the concentration for half-maximal inhibition (IC50) at EGFR L858R/T790M was more than 30 µM; at EGFR WT it was 12 µM; on EGFR L858R/T790M/C797S it was 23 µM; on EGFR Exon20NPG, more than 30 µM.

`Cc1ncsc1-c1ccc([C@H](C)NC(=O)[C@H]2C[C@H](O)CN2C(=O)[C@@H](NC(=O)COCCOCCOCCOc2ccc(-c3nccc(Nc4cc5c(cn4)nc(C)n5C(C)C)n3)cc2)C(C)(C)C)cc1` [compound 278]: the IC50 on EGFR L858R/T790M was more than 30 µM; at EGFR WT, 30 µM; at EGFR L858R/T790M/C797S it was more than 30 µM; at EGFR Exon20NPG, more than 30 µM.

`COC1CCN(c2nccc(Nc3cc4[nH]c(COCCN5CCN(c6ccc7c(c6)C(=O)N(C6CCC(=O)NC6=O)C7=O)CC5)nc4cn3)n2)CC1` (centres unmarked) [compound 288]: the half-inhibitory concentration (IC50) on EGFR L858R/T790M came to 6.9 µM; on EGFR WT, 5.9 µM; on EGFR L858R/T790M/C797S, 2 µM.
